Data reported in PubChem BioAssay (NCI).
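Abbreviation: GI50, concentration required for 50% inhibition of growth. At the TGI there is no net growth.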

Columns and labels:
Assay in all cases: growth of human tumour cells (NCI), 384-well format; in the data active means GI50 below about 0.43 µM; inactive means the rest
ACHN renal = test system: ACHN renal
HL-60(TB) leukemia = test system: HL-60(TB) leukemia
TK-10 renal = test system: TK-10 renal
SK-OV-3 ovarian = test system: SK-OV-3 ovarian
NCI-H226 lung = test system: NCI-H226 lung
IGROV1 ovarian = test system: IGROV1 ovarian
EKVX NSCLC = test system: EKVX NSCLC
HCT-15 colon = test system: HCT-15 colon
SF-268 CNS = test system: SF-268 CNS
OVCAR-8 ovarian = test system: OVCAR-8 ovarian
HT29 colon = test system: HT29 colon
786-0 renal = test system: 786-0 renal
SK-MEL-28 melanoma = test system: SK-MEL-28 melanoma
SR leukemia = test system: SR leukemia
SK-MEL-5 melanoma = test system: SK-MEL-5 melanoma
OVCAR-5 ovarian = test system: OVCAR-5 ovarian
BT-549 breast = test system: BT-549 breast
HS 578T breast = test system: HS 578T breast
SNB-19 CNS = test system: SNB-19 CNS
U251 glioblastoma = test system: U251 glioblastoma
DU-145 prostate = test system: DU-145 prostate
A549 NSCLC = test system: A549 NSCLC
K-562 leukemia = test system: K-562 leukemia
CAKI-1 renal = test system: CAKI-1 renal
SN12C renal = test system: SN12C renal
NCI-H522 lung = test system: NCI-H522 lung
SNB-75 CNS = test system: SNB-75 CNS
MDA-MB-231 breast = test system: MDA-MB-231 breast
A498 renal = test system: A498 renal
OVCAR-4 ovarian = test system: OVCAR-4 ovarian
SF-295 CNS = test system: SF-295 CNS
M14 melanoma = test system: M14 melanoma
MALME-3M melanoma = test system: MALME-3M melanoma
RXF 393 renal = test system: RXF 393 renal
KM12 colon = test system: KM12 colon
RPMI-8226 leukemia = test system: RPMI-8226 leukemia
MDA-MB-435 melanoma = test system: MDA-MB-435 melanoma
SK-MEL-2 melanoma = test system: SK-MEL-2 melanoma
MCF7 breast = test system: MCF7 breast
UACC-62 melanoma = test system: UACC-62 melanoma
HCT-116 colon = test system: HCT-116 colon
HOP-92 NSCLC = test system: HOP-92 NSCLC
LOX IMVI melanoma = test system: LOX IMVI melanoma
NCI-H23 lung = test system: NCI-H23 lung
CCRF-CEM leukemia = test system: CCRF-CEM leukemia
UO-31 renal = test system: UO-31 renal
MOLT-4 leukemia = test system: MOLT-4 leukemia
OVCAR-3 ovarian = test system: OVCAR-3 ovarian
HOP-62 NSCLC = test system: HOP-62 NSCLC
NCI-H322M lung = test system: NCI-H322M lung
T-47D breast = test system: T-47D breast
PC-3 prostate = test system: PC-3 prostate
HCC-2998 colon = test system: HCC-2998 colon
NCI-H460 NSCLC = test system: NCI-H460 NSCLC
MDA-MB-468 breast = test system: MDA-MB-468 breast
SW-620 colon = test system: SW-620 colon
SF-539 CNS = test system: SF-539 CNS
UACC-257 melanoma = test system: UACC-257 melanoma
NCI/ADR-RES ovarian = test system: NCI/ADR-RES ovarian

Nc1nc(Cl)nc2c1ncn2C1OC(CO)C(O)C1F (stereo unspecified)
476 nM: TGI (UACC-62 melanoma)
692 nM: TGI (SF-268 CNS)
483 nM: TGI (BT-549 breast)
376 nM: TGI (NCI-H460 NSCLC)
1240 nM: TGI (NCI/ADR-RES ovarian)
> 22800 nM: TGI (HS 578T breast)
29.7 nM: TGI (CCRF-CEM leukemia)
7990 nM: TGI (SNB-75 CNS)
28.3 nM: TGI (MOLT-4 leukemia)
380 nM: TGI (SR leukemia)
150 nM: TGI (HOP-62 NSCLC)
697 nM: TGI (SK-MEL-2 melanoma)
160 nM: TGI (SK-MEL-5 melanoma)
active: GI50 (ACHN renal) 122 nM | GI50 (HL-60(TB) leukemia) 20.5 nM | GI50 (SK-OV-3 ovarian) 315 nM | GI50 (IGROV1 ovarian) 419 nM | GI50 (HCT-15 colon) 202 nM | GI50 (SF-268 CNS) 170 nM | GI50 (OVCAR-8 ovarian) 31.5 nM | GI50 ([…]-0 renal) 97.5 nM | GI50 (SK-MEL-28 melanoma) 106 nM | GI50 (SR leukemia) 212 nM | GI50 (SK-MEL-5 melanoma) 61.6 nM | GI50 (BT-549 breast) 77.4 nM | GI50 (SNB-19 CNS) 72.6 nM | GI50 (U251 glioblastoma) 259 nM | GI50 (DU-145 prostate) 277 nM | GI50 (A549 NSCLC) 176 nM | GI50 (K-562 leukemia) 80.4 nM | GI50 (CAKI-1 renal) 91.5 nM | GI50 (SN12C renal) 56.1 nM | GI50 (NCI-H522 lung) 165 nM | GI50 (MDA-MB-231 breast) 346 nM | GI50 (A498 renal) 324 nM | GI50 (M14 melanoma) 74.8 nM | GI50 (MALME-3M melanoma) 375 nM | GI50 (KM12 colon) 323 nM | GI50 (MDA-MB-435 melanoma) 261 nM | GI50 (SK-MEL-2 melanoma) 304 nM | GI50 (MCF7 breast) 200 nM | GI50 (UACC-62 melanoma) 208 nM | GI50 (HCT-116 colon) 57.6 nM | GI50 (HOP-92 NSCLC) 301 nM | GI50 (LOX IMVI melanoma) 306 nM | GI50 (NCI-H23 lung) 37.7 nM | GI50 (CCRF-CEM leukemia) 15.7 nM | GI50 (UO-31 renal) 234 nM | GI50 (MOLT-4 leukemia) 14.8 nM | GI50 (HOP-62 NSCLC) 41.9 nM | GI50 (HCC-2998 colon) 34.6 nM | GI50 (NCI-H460 NSCLC) 177 nM | GI50 (MDA-MB-468 breast) 253 nM | GI50 (SW-620 colon) 401 nM | GI50 (UACC-257 melanoma) 412 nM | GI50 (NCI/ADR-RES ovarian) 35.7 nM
2700 nM: TGI (U251 glioblastoma)
> 100000 nM: TGI (TK-10 renal) | TGI (SK-OV-3 ovarian) | TGI (IGROV1 ovarian) | TGI (HCT-15 colon) | TGI (OVCAR-8 ovarian) | TGI (HT29 colon) | TGI (SK-MEL-28 melanoma) | TGI (OVCAR-5 ovarian) | TGI (A549 NSCLC) | TGI (K-562 leukemia) | TGI (MDA-MB-231 breast) | TGI (OVCAR-4 ovarian) | TGI (MALME-3M melanoma) | TGI (RXF 393 renal) | TGI (KM12 colon) | TGI (MDA-MB-435 melanoma) | TGI (MCF7 breast) | TGI (HCT-116 colon) | TGI (HOP-92 NSCLC) | TGI (OVCAR-3 ovarian) | TGI (NCI-H322M lung) | TGI (T-47D breast) | TGI (PC-3 prostate) | TGI (HCC-2998 colon) | TGI (SW-620 colon)
3580 nM: TGI (NCI-H226 lung)
inactive: GI50 (TK-10 renal) 532 nM | GI50 (NCI-H226 lung) 775 nM | GI50 (EKVX NSCLC) 914 nM | GI50 (HT29 colon) 510 nM | GI50 (OVCAR-5 ovarian) 515 nM | GI50 (HS 578T breast) 430 nM | GI50 (SNB-75 CNS) 1260 nM | GI50 (OVCAR-4 ovarian) > 100000 nM | GI50 (SF-295 CNS) 724 nM | GI50 (RXF 393 renal) 7360 nM | GI50 (RPMI-8226 leukemia) 1730 nM | GI50 (OVCAR-3 ovarian) 550 nM | GI50 (NCI-H322M lung) 1850 nM | GI50 (T-47D breast) 2850 nM | GI50 (PC-3 prostate) > 20900 nM | GI50 (SF-539 CNS) 612 nM
36.8 nM: TGI (HL-60(TB) leukemia)
1820 nM: TGI (SF-539 CNS)
290 nM: TGI (M14 melanoma)
880 nM: TGI (LOX IMVI melanoma)
427 nM: TGI (ACHN renal)
3780 nM: TGI (RPMI-8226 leukemia)
699 nM: TGI (MDA-MB-468 breast)
> 23100 nM: TGI (A498 renal)
> 28900 nM: TGI (NCI-H522 lung)
1610 nM: TGI (SF-295 CNS)
114 nM: TGI (NCI-H23 lung)
401 nM: TGI (SN12C renal)
